Experimental data taken from ChEMBL document CHEMBL1773033, “Cyclic lactam hybrid α-MSH/Agouti-related protein (AGRP) analogues with nanomolar range binding affinities at the human melanocortin receptors” (Bioorg Med Chem Lett, 2011).
Positions of bridges follow the written chain, without caps; N, C: chain ends. Non-standard residues stand in square brackets, D forms with d. Residues, ends and D or L forms follow the SMILES beside them. 2Nal = N[C@@H](Cc1ccc2ccccc2c1)C(=O)O

Assays:
[1] = biological target: T1, Melanocyte-stimulating hormone receptor (Homo sapiens, UniProt Q01726); experiment: Displacement of [125I]-NDP-alpha-MSH from human MC1R expressed in HEK293 cells at 10 uM after 40 mins by Wallac 1470 gamma counting relative to Ac-Nle-c[Asp-His-D-Phe-Arg-Trp-Lys]-NH2; type: cell-based
Target sequence in this assay (Q01726 whole entry, looked up): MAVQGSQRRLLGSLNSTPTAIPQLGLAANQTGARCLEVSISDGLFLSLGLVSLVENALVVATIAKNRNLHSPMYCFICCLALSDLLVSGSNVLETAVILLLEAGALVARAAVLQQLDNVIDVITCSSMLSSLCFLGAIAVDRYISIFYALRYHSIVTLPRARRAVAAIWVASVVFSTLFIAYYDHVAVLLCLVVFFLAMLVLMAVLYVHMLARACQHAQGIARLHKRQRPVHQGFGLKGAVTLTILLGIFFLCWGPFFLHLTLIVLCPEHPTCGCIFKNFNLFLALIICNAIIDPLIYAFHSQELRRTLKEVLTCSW

Melanocortin receptor 3 [2] = biological target: T2, Melanocortin receptor 3 (Homo sapiens, UniProt P41968); experiment: Displacement of [125I]-NDP-alpha-MSH from human MC3R expressed in HEK293 cells at 10 uM after 40 mins by Wallac 1470 gamma counting relative to Ac-Nle-c[Asp-His-D-Phe-Arg-Trp-Lys]-NH2; type: cell-based
Melanocortin receptor 4 [3] = biological target: T3, Melanocortin receptor 4 (Homo sapiens, UniProt P32245); experiment: Displacement of [125I]-NDP-alpha-MSH from human MC4R expressed in HEK293 cells at 10 uM after 40 mins by Wallac 1470 gamma counting relative to Ac-Nle-c[Asp-His-D-Phe-Arg-Trp-Lys]-NH2; type: cell-based
Melanocortin receptor 5 [4] = biological target: T4, Melanocortin receptor 5 (Homo sapiens, UniProt P33032); experiment: Displacement of [125I]-NDP-alpha-MSH from human MC5R expressed in HEK293 cells at 10 uM after 40 mins by Wallac 1470 gamma counting relative to Ac-Nle-c[Asp-His-D-Phe-Arg-Trp-Lys]-NH2; type: cell-based
[5] = biological target: T1, Melanocyte-stimulating hormone receptor; experiment: Agonist activity at human MC1R expressed in HEK293 cells assessed as increase in intracellular cAMP accumulation; type: functional, cell-based
Target sequence in this assay (Q01726 whole entry): as the sequence (Q01726 whole entry, looked up) above

Melanocortin receptor 3 [6] = biological target: T2, Melanocortin receptor 3; experiment: Agonist activity at human MC3R expressed in HEK293 cells assessed as intracellular cAMP accumulation; type: functional, cell-based
Melanocortin receptor 4 [7] = biological target: T3, Melanocortin receptor 4; experiment: Agonist activity at human MC4R expressed in HEK293 cells assessed as intracellular cAMP accumulation; type: functional, cell-based
Melanocortin receptor 5 [8] = biological target: T4, Melanocortin receptor 5; experiment: Agonist activity at human MC5R expressed in HEK293 cells assessed as intracellular cAMP accumulation; type: functional, cell-based
[9] = biological target: T1, Melanocyte-stimulating hormone receptor; experiment: Agonist activity at human MC1R expressed in HEK293 cells assessed as increase in intracellular cAMP level at 10 uM after 3 mins by luminescence counter relative to Ac-Nle-c[Asp-His-D-Phe-Arg-Trp-Lys]-NH2; type: functional, cell-based
Target sequence in this assay (Q01726 whole entry, looked up): as above

Melanocortin receptor 3 [10] = biological target: T2, Melanocortin receptor 3; experiment: Agonist activity at human MC3R expressed in HEK293 cells assessed as increase in intracellular cAMP level at 10 uM after 3 mins by luminescence counter relative to Ac-Nle-c[Asp-His-D-Phe-Arg-Trp-Lys]-NH2; type: functional, cell-based
Melanocortin receptor 4 [11] = biological target: T3, Melanocortin receptor 4; experiment: Agonist activity at human MC4R expressed in HEK293 cells assessed as increase in intracellular cAMP level at 10 uM after 3 mins by luminescence counter relative to Ac-Nle-c[Asp-His-D-Phe-Arg-Trp-Lys]-NH2; type: functional, cell-based
Melanocortin receptor 5 [12] = biological target: T4, Melanocortin receptor 5; experiment: Agonist activity at human MC5R expressed in HEK293 cells assessed as increase in intracellular cAMP level at 10 uM after 3 mins by luminescence counter relative to Ac-Nle-c[Asp-His-D-Phe-Arg-Trp-Lys]-NH2; type: functional, cell-based
[13] = biological target: T1, Melanocyte-stimulating hormone receptor; experiment: Displacement of [125I]-NDP-alpha-MSH from human MC1R expressed in HEK293 cells after 40 mins by Wallac 1470 gamma counting; type: cell-based
Target sequence in this assay (Q01726 whole entry): as the sequence (Q01726 whole entry, looked up) above

Melanocortin receptor 3 [14] = biological target: T2, Melanocortin receptor 3; experiment: Displacement of [125I]-NDP-alpha-MSH from human MC3R expressed in HEK293 cells after 40 mins by Wallac 1470 gamma counting; type: cell-based
Melanocortin receptor 4 [15] = biological target: T3, Melanocortin receptor 4; experiment: Displacement of [125I]-NDP-alpha-MSH from human MC4R expressed in HEK293 cells after 40 mins by Wallac 1470 gamma counting; type: cell-based
Melanocortin receptor 5 [16] = biological target: T4, Melanocortin receptor 5; experiment: Displacement of [125I]-NDP-alpha-MSH from human MC5R expressed in HEK293 cells after 40 mins by Wallac 1470 gamma counting; type: cell-based

T4 sequence (P33032 whole entry): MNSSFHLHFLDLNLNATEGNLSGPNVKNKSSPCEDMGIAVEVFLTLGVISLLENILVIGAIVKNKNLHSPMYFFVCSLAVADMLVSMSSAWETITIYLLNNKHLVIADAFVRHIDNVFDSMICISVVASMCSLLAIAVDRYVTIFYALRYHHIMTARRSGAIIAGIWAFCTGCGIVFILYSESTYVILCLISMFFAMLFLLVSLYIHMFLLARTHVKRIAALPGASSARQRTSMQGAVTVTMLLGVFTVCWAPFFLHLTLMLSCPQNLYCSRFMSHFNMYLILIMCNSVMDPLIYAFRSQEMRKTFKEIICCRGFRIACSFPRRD
T3 sequence (P32245 whole entry): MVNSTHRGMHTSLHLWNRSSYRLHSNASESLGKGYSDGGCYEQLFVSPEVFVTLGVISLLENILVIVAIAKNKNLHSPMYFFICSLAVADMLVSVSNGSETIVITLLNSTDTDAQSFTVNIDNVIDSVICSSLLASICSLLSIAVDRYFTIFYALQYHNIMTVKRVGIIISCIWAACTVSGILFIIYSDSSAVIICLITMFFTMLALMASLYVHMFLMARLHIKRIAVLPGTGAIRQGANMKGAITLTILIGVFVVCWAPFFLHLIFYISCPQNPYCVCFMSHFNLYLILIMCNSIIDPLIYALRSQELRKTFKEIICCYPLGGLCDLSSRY
T2 sequence (P41968 whole entry): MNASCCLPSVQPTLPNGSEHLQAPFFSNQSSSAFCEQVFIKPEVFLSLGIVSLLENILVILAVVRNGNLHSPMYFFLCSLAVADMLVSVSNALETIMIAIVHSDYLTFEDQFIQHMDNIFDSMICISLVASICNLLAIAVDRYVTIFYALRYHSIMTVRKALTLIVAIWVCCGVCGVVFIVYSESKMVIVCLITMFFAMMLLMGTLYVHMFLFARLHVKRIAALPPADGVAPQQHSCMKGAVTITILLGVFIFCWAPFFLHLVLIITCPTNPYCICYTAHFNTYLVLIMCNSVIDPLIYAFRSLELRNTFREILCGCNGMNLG

Structure (SMILES) | Activity [1] | Activity (Melanocortin receptor 3 [2]) | Activity (Melanocortin receptor 4 [3]) | Activity (Melanocortin receptor 5 [4]) | EC50 [5] | EC50 (Melanocortin receptor 3 [6]) | EC50 (Melanocortin receptor 4 [7]) | EC50 (Melanocortin receptor 5 [8]) | Activity [9] | Activity (Melanocortin receptor 3 [10]) | Activity (Melanocortin receptor 4 [11]) | Activity (Melanocortin receptor 5 [12]) | IC50 [13] | IC50 (Melanocortin receptor 3 [14]) | IC50 (Melanocortin receptor 4 [15]) | IC50 (Melanocortin receptor 5 [16])
CC(=O)N[C@H]1CC(=O)NCCCC[C@@H](C(N)=O)NC(=O)[C@@H](CC(N)=O)NC(=O)[C@H](Cc2ccccc2)NC(=O)[C@H](Cc2c[nH]c3ccccc23)NC(=O)[C@H](CCCNC(=N)N)NC1=O (Ac-DRWF[dN]K-NH2; lactam 1-6) | 0% | 0% | 0% | 0% | Not Active | Not Active | Not Active | Not Active | 0% | 0% | 0% | 0% | Not Active | Not Active | Not Active | Not Active
CC(=O)N[C@H]1CC(=O)NCCCC[C@@H](C(N)=O)NC(=O)[C@@H](CCC(N)=O)NC(=O)[C@H](Cc2ccccc2)NC(=O)[C@H](Cc2c[nH]c3ccccc23)NC(=O)[C@H](CCCNC(=N)N)NC1=O (Ac-DRWF[dQ]K-NH2; lactam 1-6) | 0% | 0% | 0% | 0% | Not Active | Not Active | Not Active | Not Active | 0% | 0% | 0% | 0% | Not Active | Not Active | Not Active | Not Active
CC(=O)N[C@H]1CC(=O)NCCCC[C@@H](C(N)=O)NC(=O)[C@@H](CCCNC(=N)N)NC(=O)[C@H](Cc2ccccc2)NC(=O)[C@H](Cc2c[nH]c3ccccc23)NC(=O)[C@H](CCCNC(=N)N)NC1=O (Ac-DRWF[dR]K-NH2; lactam 1-6) | 0% | 0% | 0% | 0% | Not Active | Not Active | Not Active | Not Active | 0% | 0% | 0% | 0% | Not Active | Not Active | Not Active | Not Active
C[C@@H]1NC(=O)[C@@H](CCC(N)=O)NC(=O)[C@H](Cc2ccccc2)NC(=O)[C@H](Cc2c[nH]c3ccccc23)NC(=O)[C@H](CCCNC(=N)N)NC(=O)CC[C@@H](C(N)=O)NC(=O)[C@H](Cc2ccccc2)NC1=O (RWF[dQ]AFE-NH2; lactam N-7) | – | 0% | 0% | – | Not Active | Not Active | Not Active | Not Active | 0% | – | – | 0% | Not Active | Not Active | Not Active | Not Active
C[C@@H]1NC(=O)[C@@H](CC(N)=O)NC(=O)[C@H](Cc2ccc3ccccc3c2)NC(=O)[C@H](Cc2c[nH]c3ccccc23)NC(=O)[C@H](CCCNC(=N)N)NC(=O)CC[C@@H](C(N)=O)NC(=O)[C@H](Cc2ccccc2)NC1=O (RW[2Nal][dN]AFE-NH2; lactam N-7) | – | 0% | – | 0% | Not Active | Not Active | Not Active | Not Active | 0% | – | 0% | – | Not Active | Not Active | Not Active | Not Active
C[C@@H]1NC(=O)[C@@H](CCC(N)=O)NC(=O)[C@H](Cc2ccc3ccccc3c2)NC(=O)[C@H](Cc2c[nH]c3ccccc23)NC(=O)[C@H](CCCNC(=N)N)NC(=O)CC[C@@H](C(N)=O)NC(=O)[C@H](Cc2ccccc2)NC1=O (RW[2Nal][dQ]AFE-NH2; lactam N-7) | 0% | – | – | – | Not Active | Not Active | Not Active | Not Active | – | 0% | 0% | 0% | Not Active | Not Active | Not Active | Not Active
C[C@@H]1NC(=O)[C@H](Cc2cnc[nH]2)NC(=O)[C@@H](Cc2ccccc2)NC(=O)[C@H](Cc2c[nH]c3ccccc23)NC(=O)[C@H](CCCNC(=N)N)NC(=O)CC[C@@H](C(N)=O)NC(=O)[C@H](Cc2ccccc2)NC1=O (RW[dF]HAFE-NH2; lactam N-7) | – | – | 0% | – | Not Active | Not Active | Not Active | Not Active | 0% | 0% | – | 0% | Not Active | Not Active | Not Active | Not Active
C[C@@H]1NC(=O)[C@H](CC(N)=O)NC(=O)[C@@H](Cc2ccccc2)NC(=O)[C@H](Cc2c[nH]c3ccccc23)NC(=O)[C@H](CCCNC(=N)N)NC(=O)CC[C@@H](C(N)=O)NC(=O)[C@H](Cc2ccccc2)NC1=O (RW[dF]NAFE-NH2; lactam N-7) | 0% | – | – | – | Not Active | Not Active | Not Active | Not Active | – | 0% | 0% | 0% | Not Active | Not Active | Not Active | Not Active
